In ChEMBL document CHEMBL1201862, “PubChem BioAssay data set” (2004):
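1) Cells in 96-well plates. 2) Compound, 48 h, 5 concentrations. 3) Linear interpolation between surrounding doses. 4) Unreached endpoint = highest concentration. GI50 = concentration required for 50% inhibition of growth.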 Calls of active or inactive are those of the source. Rule as the data show it: active = GI50 up to about 1.1 µM and inactive = higher.

Tests used:
Test in all cases: DTP human tumour cell line panel, 48 h
HOP-92 = system: HOP-92
SK-OV-3 = system: SK-OV-3
NCI/ADR-RES = system: NCI/ADR-RES
IGROV-1 = system: IGROV-1
RXF 393 = system: RXF 393
SW-620 = system: SW-620
HT-29 = system: HT-29
DU-145 = system: DU-145
OVCAR-3 = system: OVCAR-3
SR = system: SR
CCRF-CEM = system: CCRF-CEM
U-251 = system: U-251
HCC 2998 = system: HCC 2998
ACHN = system: ACHN
NCI-H460 = system: NCI-H460
T47D = system: T47D
NCI-H226 = system: NCI-H226
OVCAR-5 = system: OVCAR-5
NCI-H522 = system: NCI-H522
SNB-75 = system: SNB-75

Compound | GI50 (HOP-92) | GI50 (SK-OV-3) | GI50 (NCI/ADR-RES) | GI50 (IGROV-1) | GI50 (RXF 393) | GI50 (SW-620) | GI50 (HT-29) | GI50 (DU-145) | GI50 (OVCAR-3) | GI50 (SR) | GI50 (CCRF-CEM) | GI50 (U-251) | GI50 (HCC 2998) | GI50 (ACHN) | GI50 (NCI-H460) | GI50 (T47D) | GI50 (NCI-H226) | GI50 (OVCAR-5) | GI50 (NCI-H522) | GI50 (SNB-75)
Cc1ccc2sc3ccc(N)cc3c(=O)c2c1 | 32.9 µM (inactive) | 41.6 µM (inactive) | 53.2 µM (inactive) | 33.8 µM (inactive) | 38.5 µM (inactive) | 62.1 µM (inactive) | 30.2 µM (inactive) | 53 µM (inactive) | 32 µM (inactive) | 68.2 µM (inactive) | 40.3 µM (inactive) | 61.2 µM (inactive) | 37.2 µM (inactive) | 37.8 µM (inactive) | 41.3 µM (inactive) | 14.9 µM (inactive) | 82.4 µM (inactive) | > 100 µM (inactive) | 30.3 µM (inactive) | 
CC(C)(C)[Si](C)(C)OCC1OC(n2ccc(=O)[nH]c2=O)C(O[Si](C)(C)C(C)(C)C)/C1=C/C#N (stereo not given) | 5.93 µM (inactive) | 1.79 µM (inactive) | 4.01 µM (inactive) | 40.8 µM (inactive) | 2.91 µM (inactive) | 0.838 µM (active) | 3.88 µM (inactive) | 5.48 µM (inactive) | 7.29 µM (inactive) | 3.5 µM (inactive) | 4.23 µM (inactive) | 4.21 µM (inactive) | 5.48 µM (inactive) | 5.7 µM (inactive) | 4.41 µM (inactive) | 3.93 µM (inactive) | 16.8 µM (inactive) | 20.4 µM (inactive) | 3.67 µM (inactive) | 46.6 µM (inactive)
Cc1ccc(/C=C/C(=N/NC(=O)N/N=C(/C=C/c2ccc(C)cc2)C(C)(C)CN2CCCCC2)C(C)(C)CN2CCCCC2)cc1 | 1.51 µM (inactive) | 1.77 µM (inactive) | 1.64 µM (inactive) | 1.98 µM (inactive) | 1.28 µM (inactive) | 1.79 µM (inactive) | 0.757 µM (active) | 3.48 µM (inactive) | 1.48 µM (inactive) | 0.0787 µM (active) | 1.3 µM (inactive) | 1.48 µM (inactive) | 1.77 µM (inactive) | 2 µM (inactive) | 1.64 µM (inactive) | 2.19 µM (inactive) | 1.82 µM (inactive) | 2.16 µM (inactive) | 1.63 µM (inactive) | 1.46 µM (inactive)
COc1ccc(/C=C2\CCC(CN(C)C)C2=O)cc1OC (stereo not given) | 5.69 µM (inactive) | 19.1 µM (inactive) | 2.49 µM (inactive) | 13.1 µM (inactive) | 1.94 µM (inactive) | 1.82 µM (inactive) | 5.61 µM (inactive) | 8.24 µM (inactive) | 7.21 µM (inactive) | 1.86 µM (inactive) | 1.32 µM (inactive) | 16.1 µM (inactive) | 5.83 µM (inactive) | 7 µM (inactive) | 11.1 µM (inactive) | 5.41 µM (inactive) | 13.2 µM (inactive) | 14.8 µM (inactive) | 1.95 µM (inactive) | 8.49 µM (inactive)
COc1ccc(-c2nnc3n(C)c4ccccc4n3c2=O)cc1 | > 100 µM (inactive) |  | > 100 µM (inactive) | 51.5 µM (inactive) | 31.1 µM (inactive) | > 100 µM (inactive) | > 100 µM (inactive) | > 100 µM (inactive) |  | > 100 µM (inactive) | > 100 µM (inactive) | 27.7 µM (inactive) | > 100 µM (inactive) | 63 µM (inactive) | 38.3 µM (inactive) | > 100 µM (inactive) | > 100 µM (inactive) | > 100 µM (inactive) | 77.8 µM (inactive) | 20.8 µM (inactive)
COc1ccc(C(=O)c2nc3ccccc3nc2N2CCN(c3ccccc3)CC2)cc1OC | > 100 µM (inactive) | > 100 µM (inactive) | > 100 µM (inactive) | > 100 µM (inactive) | > 100 µM (inactive) | > 100 µM (inactive) | > 100 µM (inactive) | > 100 µM (inactive) | > 100 µM (inactive) | > 100 µM (inactive) | > 100 µM (inactive) | > 100 µM (inactive) | > 100 µM (inactive) | > 100 µM (inactive) | > 100 µM (inactive) | > 100 µM (inactive) |  | > 100 µM (inactive) | > 100 µM (inactive) | > 100 µM (inactive)
O=C1C=C2CO[C@H]3OC[C@H](O)[C@@H]1[C@@H]23 | 46.3 µM (inactive) | > 100 µM (inactive) | > 100 µM (inactive) | > 100 µM (inactive) | 19.9 µM (inactive) | 30.1 µM (inactive) | > 100 µM (inactive) | > 100 µM (inactive) | > 100 µM (inactive) | 22.6 µM (inactive) | 19 µM (inactive) | 19.7 µM (inactive) | 29 µM (inactive) | > 100 µM (inactive) | > 100 µM (inactive) | 25.5 µM (inactive) |  | 73.5 µM (inactive) | 16.5 µM (inactive) | 43 µM (inactive)
